Experimental data from patent publication US20250147039A1, “Compounds for complexation of rare earth elements and/or s-, p-, d- block metals, their coordination compounds, peptide conjugates, method of their preparation and use thereof” (USTAV ORGANICKE CHEMIE A BIOCHEMIE AV CR V.V.I., priority 2021, published 2025).

Columns and labels:
Type in all cases: physicochemical
[1] = Dissociation of chelates in aq. 1.0M HCl at 80° C. (acid decomplexation kinetic inertness) (Chart 18)
[2] = Dissociation of chelates in aq. 6.0M HCl at 80° C. (acid decomplexation kinetic inertness) (Chart 17)
[3] = Dissociation of chelates in aq. 0.1M HCl at 80° C. (acid decomplexation kinetic inertness) (Chart 19)
[4] = Dissociation of chelates in aq. 0.1M HCl at RT (acid decomplexation kinetic inertness) (Chart 20)

| SMILES | fraction of intact chelate ([1]; 1 month) [%] | fraction of intact chelate ([1]; 1 week) [%] | fraction of intact chelate ([1]; 1 hour) [%] | fraction of intact chelate ([1]; 1 day) [%] | fraction of intact chelate ([2]; 1 month) [%] | fraction of intact chelate ([2]; 1 week) [%] | fraction of intact chelate ([2]; 1 hour) [%] | fraction of intact chelate ([2]; 1 day) [%] | fraction of intact chelate ([3]; 1 month) [%] | fraction of intact chelate ([3]; 1 week) [%] | fraction of intact chelate ([3]; 1 hour) [%] | fraction of intact chelate ([3]; 1 day) [%] | fraction of intact chelate ([4]; 1 month) [%] | fraction of intact chelate ([4]; 1 week) [%] | fraction of intact chelate ([4]; 1 hour) [%] | fraction of intact chelate ([4]; 1 day) [%] |
| --- | --- | --- | --- | --- | --- | --- | --- | --- | --- | --- | --- | --- | --- | --- | --- | --- |
| O=C1C[N@@]2CC[N@]3CC[N@@](CC[N@](CC2)Cc2cccc(n2)-c2cnnn2Cc2cc(-c4ccccc4)cc(n2)C3)CC(=O)[O][Tb][O]1 [TD600] | 23 | 78 | 99 | 96 | 0 | 0 | 72 | 0 | 99 | 99 | 100 | 100 | 100 | 100 | 100 | 100 |
| O=C1C[N@@]2CC[N@]3CC[N@@](CC[N@](CC2)Cc2cccc(n2)-c2cnnn2Cc2cc(-c4ccccc4)cc(n2)C3)CC(=O)[O][Tm][O]1 [TD601] | 100 | 100 | 100 | 100 | 69 | 92 | 100 | 99 | 100 | 100 | 100 | 100 | 100 | 100 | 100 | 100 |
| O=C1C[N@@]2CC[N@]3CC[N@@](CC[N@](CC2)Cc2cccc(n2)-c2cnnn2Cc2cc(-c4ccccc4)cc(n2)C3)CC(=O)[O][Yb][O]1 [TD602] | 100 | 100 | 100 | 100 | 90 | 98 | 100 | 100 | 100 | 100 | 100 | 100 | 100 | 100 | 100 | 100 |
| O=C1C[N@@]2CC[N@]3CC[N@@](CC[N@](CC2)Cc2cccc(n2)-c2cnnn2Cc2cc(-c4ccccc4)cc(n2)C3)CC(=O)[O][Ho][O]1 [TD648] | 96 | 99 | 100 | 100 | 0 | 17 | 99 | 81 | 100 | 100 | 100 | 100 | 100 | 100 | 100 | 100 |
| O=C1C[N@@]2CC[N@]3CC[N@@](CC[N@](CC2)Cc2cccc(n2)-c2cnnn2Cc2cc(-c4ccccc4)cc(n2)C3)CC(=O)[O][Y][O]1 [TD649] | 92 | 98 | 100 | 100 | 0 | 7 | 98 | 69 | 100 | 100 | 100 | 100 | 100 | 100 | 100 | 100 |
| O=C([O-])CN1CCN2CCN(CC(=O)[O-])CCN(CC1)Cc1cccc(n1)-c1cnnn1Cc1cc(-c3ccccc3)cc(n1)C2.[Ca+2] [TD863] | 0 | 0 | 0 | 0 | 0 | 0 | 0 | 0 | 0 | 0 | 0 | 0 | 0 | 0 | 39 | 0 |
| O=C1C[N@@]2CC[N@]3CC[N@@](CC[N@](CC2)Cc2cccc(n2)-c2cn(nn2)Cc2cc(-c4ccccc4)cc(n2)C3)CC(=O)[O][Lu][O]1 [TD874] | 0 | 0 | 0 | 0 | 0 | 0 | 0 | 0 | 0 | 0 | 0 | 0 | 0 | 14 | 99 | 68 |

The next lines start with the values.

| fraction of intact chelate ([1]; 1 month) [%] | fraction of intact chelate ([1]; 1 week) [%] | fraction of intact chelate ([1]; 1 hour) [%] | fraction of intact chelate ([1]; 1 day) [%] | fraction of intact chelate ([2]; 1 month) [%] | fraction of intact chelate ([2]; 1 week) [%] | fraction of intact chelate ([2]; 1 hour) [%] | fraction of intact chelate ([2]; 1 day) [%] | fraction of intact chelate ([3]; 1 month) [%] | fraction of intact chelate ([3]; 1 week) [%] | fraction of intact chelate ([3]; 1 hour) [%] | fraction of intact chelate ([3]; 1 day) [%] | fraction of intact chelate ([4]; 1 month) [%] | fraction of intact chelate ([4]; 1 week) [%] | fraction of intact chelate ([4]; 1 hour) [%] | fraction of intact chelate ([4]; 1 day) [%] | SMILES |
| --- | --- | --- | --- | --- | --- | --- | --- | --- | --- | --- | --- | --- | --- | --- | --- | --- |
| 0 | 0 | 0 | 0 | 0 | 0 | 0 | 0 | 0 | 0 | 0 | 0 | 0 | 0 | 76 | 4 | O=C1C[N@@]2CC[N@]3CC[N@@](CC[N@](CC2)Cc2cccc(n2)-c2cnnn2Cc2cc(-c4ccccc4)cc(n2)C3)CC(=O)[O][La][O]1 [TD651] |
| 99 | 100 | 100 | 100 | 24 | 71 | 99 | 95 | 100 | 100 | 100 | 100 | 100 | 100 | 100 | 100 | O=C1C[N@@]2CC[N@]3CC[N@@](CC[N@](CC2)Cc2cccc(n2)-c2cnnn2Cc2cc(-c4ccccc4)cc(n2)C3)CC(=O)[O][Er][O]1 [TD865] |
| 87 | 96 | 100 | 99 | 0 | 0 | 95 | 25 | 100 | 100 | 100 | 100 | 100 | 100 | 100 | 100 | O=C1C[N@@]2CC[N@]3CC[N@@](CC[N@](CC2)Cc2cccc(n2)-c2cnnn2Cc2cc(-c4ccccc4)cc(n2)C3)CC(=O)[O][Dy][O]1 [TD866] |
| 0 | 0 | 62 | 0 | 0 | 0 | 0 | 0 | 1 | 35 | 99 | 86 | 96 | 99 | 100 | 100 | O=C1C[N@@]2CC[N@]3CC[N@@](CC[N@](CC2)Cc2cccc(n2)-c2cnnn2Cc2cc(-c4ccccc4)cc(n2)C3)CC(=O)[O][Sm][O]1 [TD867] |
| 0 | 0 | 0 | 0 | 0 | 0 | 0 | 0 | 0 | 0 | 76 | 0 | 2 | 54 | 99 | 90 | O=C1C[N@@]2CC[N@]3CC[N@@](CC[N@](CC2)Cc2cccc(n2)-c2cnnn2Cc2cc(-c4ccccc4)cc(n2)C3)CC(=O)[O][Nd][O]1 [TD868] |
| 0 | 0 | 0 | 0 | 0 | 0 | 0 | 0 | 0 | 0 | 0 | 0 | 0 | 0 | 95 | 37 | O=C1C[N@@]2CC[N@]3CC[N@@](CC[N@](CC2)Cc2cccc(n2)-c2cnnn2Cc2cc(-c4ccccc4)cc(n2)C3)CC(=O)[O][Ce][O]1 [TD870] |
